Data set [1] addresses T1, Transient receptor potential cation channel subfamily V member 4 (Homo sapiens, UniProt Q9HBA0). Put plainly: Antagonist activity at human TRPV4.
Data set [2] concerns the target T1, Transient receptor potential cation channel subfamily V member 4. Put plainly: Antagonist activity at human TRPV4 expressed in CHOK1 cells assessed as inhibition of PF-04674114/GSK1016790A-induced changes in intracellular calcium level measured for 5 mins by FLIPR assay. Type of data set: cell-based, CHO-K1. For orientation: A change in cytosolic calcium serves as a functional read-out for many receptors and channels.

Data set [3] has as its target Transient receptor potential cation channel subfamily M member 8 (Homo sapiens, UniProt Q7Z2W7). Put plainly: Antagonist activity at human TRPM8.
Data set [4] has as its target T2, Transient receptor potential cation channel subfamily V member 1 (Homo sapiens, UniProt Q8NER1). Put plainly: Agonist activity at human TRPV1.
In data set [5] the target is T2, Transient receptor potential cation channel subfamily V member 1. Put plainly: Antagonist activity at human TRPV1.
Data set [6] concerns the target T3, Transient receptor potential cation channel subfamily A member 1 (Homo sapiens, UniProt O75762). Put plainly: Agonist activity at human TRPA1.
Data set [7] concerns the target T3, Transient receptor potential cation channel subfamily A member 1. Put plainly: Antagonist activity at human TRPA1.
Data set [8] addresses T4, Transient receptor potential cation channel subfamily V member 4 (Rattus norvegicus, UniProt Q9ERZ8). Put plainly: Agonist activity at rat TRPV4 expressed in CHOK1 cells assessed as changes in intracellular calcium level measured for 5 mins by FLIPR assay. Type of data set: cell-based, CHO-K1.
The target in data set [9] is T4, Transient receptor potential cation channel subfamily V member 4. Put plainly: Antagonist activity at rat TRPV4 expressed in CHOK1 cells assessed as inhibition of PF-04674114/GSK1016790A-induced changes in intracellular calcium level measured for 5 mins by FLIPR assay. Type of data set: cell-based, CHO-K1.
For data set [10], the target named is T1, Transient receptor potential cation channel subfamily V member 4. Put plainly: Agonist activity at human TRPV4 expressed in CHOK1 cells assessed as changes in intracellular calcium level measured for 5 mins by FLIPR assay. Type of data set: cell-based, CHO-K1.
Data set [11] in a line: Oral bioavailability in Sprague-Dawley rat at 2 mg/kg. Type of data set: ADME, organism-based. To be noted: in vivo.
Data set [12] can be described thus: Tmax in Sprague-Dawley rat at 2 mg/kg, po. Type of data set: ADME, organism-based. Further details: dose 2 mg/kg, route oral. To be noted: in vivo.
The test system of data set [13] is Rattus norvegicus. Put plainly: fCmax in Sprague-Dawley rat at 2 mg/kg, po. Type of data set: ADME, organism-based. Further details: dose 2 mg/kg, route oral. To be noted: in vivo.
Data set [14] can be described thus: Volume of distribution at steady state in Sprague-Dawley rat at 1 mg/kg, iv. In kind it is ADME, organism-based. Further details: dose 1 mg/kg, route intravenous. To be noted: in vivo, read-out: Vdss.
For data set [15], the system named is Rattus norvegicus. Put plainly: Unbound clearance in Sprague-Dawley rat at 1 mg/kg, iv. The arrangement: dose 1 mg/kg, route intravenous. To be noted: in vivo. Type of data set: ADME, organism-based.
A short description of data set [16]: Clearance in Sprague-Dawley rat at 1 mg/kg, iv. To be noted: in vivo. Type of data set: ADME, organism-based. The arrangement: dose 1 mg/kg, route intravenous.
The nature of data set [17]: Half life in Sprague-Dawley rat at 1 mg/kg, iv. The arrangement: dose 1 mg/kg, route intravenous. To be noted: in vivo. Type of data set: ADME, organism-based.
Data set [18] has as its target Voltage-gated inwardly rectifying potassium channel KCNH2 (Homo sapiens, UniProt Q12809). Put plainly: Inhibition of dofetilide binding to human ERG.
Data set [19] in a line: Lipophilicity, log D of the compound. Type of data set: physicochemical. To be noted: octanol/water.
The target of a further data set is CYP2D6 (Homo sapiens, UniProt P10635). Put plainly: Inhibition of CYP2D6 (unknown origin) at 3 uM relative to control. Type of data set: ADME.
A further data set concerns the target CYP3A4 (Homo sapiens, UniProt P08684). Put plainly: Inhibition of CYP3A4 (unknown origin) at 3 uM relative to control. Type of data set: ADME.
The target of the next data set is CYP2C9 (Homo sapiens, UniProt P11712). Put plainly: Inhibition of CYP2C9 (unknown origin) at 3 uM relative to control. In kind it is ADME.
In a further data set the target is T5, CYP1A2 (Homo sapiens, UniProt P05177).
T5 sequence (P05177 whole entry): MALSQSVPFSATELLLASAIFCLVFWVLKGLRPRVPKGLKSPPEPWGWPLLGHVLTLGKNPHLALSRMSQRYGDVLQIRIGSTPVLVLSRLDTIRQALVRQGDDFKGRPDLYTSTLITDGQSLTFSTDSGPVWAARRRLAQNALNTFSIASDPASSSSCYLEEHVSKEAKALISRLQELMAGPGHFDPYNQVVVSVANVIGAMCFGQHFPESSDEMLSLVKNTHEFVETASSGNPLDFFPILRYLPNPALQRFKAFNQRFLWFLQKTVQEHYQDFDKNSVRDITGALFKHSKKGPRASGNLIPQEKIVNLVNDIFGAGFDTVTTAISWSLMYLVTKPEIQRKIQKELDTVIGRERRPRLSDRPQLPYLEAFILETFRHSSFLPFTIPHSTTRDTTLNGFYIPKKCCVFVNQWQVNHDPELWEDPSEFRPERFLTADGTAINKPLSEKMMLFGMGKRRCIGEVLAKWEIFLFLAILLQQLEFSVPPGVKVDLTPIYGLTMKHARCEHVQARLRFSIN
Put plainly: Inhibition of CYP1A2 (unknown origin) at 3 uM relative to control. In kind it is ADME.

Data set [20] is described as follows: Clearance in rat liver microsomes. In kind it is ADME. To be noted: read-out: CLH. (In general: Microsomes from liver hold many membrane-bound enzymes, among them those of drug oxidation.)
Data set [21] can be described thus: Clearance in human liver microsomes. To be noted: read-out: CLH. Type of data set: ADME.

The source of these data is ChEMBL document CHEMBL3217745, “Identification of false positives in HTS hits to lead: The application of Bayesian models in HTS triage to rapidly deliver a series of selective TRPV4 antagonists” (Medchemcomm, 2013).

Each structure is given as a SMILES string.

T4 sequence (Q9ERZ8 whole entry): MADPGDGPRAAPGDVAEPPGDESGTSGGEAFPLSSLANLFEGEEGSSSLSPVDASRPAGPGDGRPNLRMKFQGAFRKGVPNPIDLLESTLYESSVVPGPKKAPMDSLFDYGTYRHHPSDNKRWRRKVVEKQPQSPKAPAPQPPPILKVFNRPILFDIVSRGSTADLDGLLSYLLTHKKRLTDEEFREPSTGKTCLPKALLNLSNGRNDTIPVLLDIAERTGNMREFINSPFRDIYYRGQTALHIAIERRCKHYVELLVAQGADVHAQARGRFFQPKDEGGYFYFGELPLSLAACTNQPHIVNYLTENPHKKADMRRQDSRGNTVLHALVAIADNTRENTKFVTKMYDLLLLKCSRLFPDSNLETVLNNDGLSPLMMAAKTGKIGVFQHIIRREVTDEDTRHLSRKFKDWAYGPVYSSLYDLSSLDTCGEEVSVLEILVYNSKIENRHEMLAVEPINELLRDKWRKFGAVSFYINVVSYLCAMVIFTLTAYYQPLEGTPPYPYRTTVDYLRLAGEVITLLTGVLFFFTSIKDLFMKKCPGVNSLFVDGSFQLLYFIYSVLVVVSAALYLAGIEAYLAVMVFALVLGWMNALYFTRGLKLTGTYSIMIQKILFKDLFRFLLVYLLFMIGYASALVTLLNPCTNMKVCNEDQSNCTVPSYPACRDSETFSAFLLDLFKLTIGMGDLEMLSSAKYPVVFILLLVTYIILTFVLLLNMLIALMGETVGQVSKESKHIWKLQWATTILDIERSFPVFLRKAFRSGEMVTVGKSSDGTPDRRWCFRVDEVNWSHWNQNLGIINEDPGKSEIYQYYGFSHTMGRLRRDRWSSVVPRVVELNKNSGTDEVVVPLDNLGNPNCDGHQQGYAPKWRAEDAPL
T2 sequence (Q8NER1 whole entry): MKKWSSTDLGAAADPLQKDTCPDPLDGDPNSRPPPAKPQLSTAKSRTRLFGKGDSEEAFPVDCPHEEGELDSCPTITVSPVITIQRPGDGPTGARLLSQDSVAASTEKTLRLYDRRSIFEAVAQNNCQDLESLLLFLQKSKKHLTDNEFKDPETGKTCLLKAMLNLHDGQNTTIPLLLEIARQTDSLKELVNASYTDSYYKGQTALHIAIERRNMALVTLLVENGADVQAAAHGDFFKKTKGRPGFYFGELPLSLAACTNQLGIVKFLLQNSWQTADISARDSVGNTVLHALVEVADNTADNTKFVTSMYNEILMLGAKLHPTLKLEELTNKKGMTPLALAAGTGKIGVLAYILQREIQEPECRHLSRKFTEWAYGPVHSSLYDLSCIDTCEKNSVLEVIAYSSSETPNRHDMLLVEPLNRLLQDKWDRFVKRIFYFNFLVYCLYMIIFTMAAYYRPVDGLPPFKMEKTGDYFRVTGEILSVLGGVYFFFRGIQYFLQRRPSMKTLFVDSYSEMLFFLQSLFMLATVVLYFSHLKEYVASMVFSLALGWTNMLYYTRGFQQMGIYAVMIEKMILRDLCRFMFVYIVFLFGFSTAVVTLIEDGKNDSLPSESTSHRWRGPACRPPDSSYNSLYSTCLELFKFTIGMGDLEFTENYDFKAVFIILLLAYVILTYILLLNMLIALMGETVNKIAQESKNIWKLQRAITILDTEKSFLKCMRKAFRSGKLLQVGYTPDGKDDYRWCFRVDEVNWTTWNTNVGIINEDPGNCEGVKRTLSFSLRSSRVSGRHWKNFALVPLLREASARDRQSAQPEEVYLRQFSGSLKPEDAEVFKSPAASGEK
T1 sequence (Q9HBA0 whole entry): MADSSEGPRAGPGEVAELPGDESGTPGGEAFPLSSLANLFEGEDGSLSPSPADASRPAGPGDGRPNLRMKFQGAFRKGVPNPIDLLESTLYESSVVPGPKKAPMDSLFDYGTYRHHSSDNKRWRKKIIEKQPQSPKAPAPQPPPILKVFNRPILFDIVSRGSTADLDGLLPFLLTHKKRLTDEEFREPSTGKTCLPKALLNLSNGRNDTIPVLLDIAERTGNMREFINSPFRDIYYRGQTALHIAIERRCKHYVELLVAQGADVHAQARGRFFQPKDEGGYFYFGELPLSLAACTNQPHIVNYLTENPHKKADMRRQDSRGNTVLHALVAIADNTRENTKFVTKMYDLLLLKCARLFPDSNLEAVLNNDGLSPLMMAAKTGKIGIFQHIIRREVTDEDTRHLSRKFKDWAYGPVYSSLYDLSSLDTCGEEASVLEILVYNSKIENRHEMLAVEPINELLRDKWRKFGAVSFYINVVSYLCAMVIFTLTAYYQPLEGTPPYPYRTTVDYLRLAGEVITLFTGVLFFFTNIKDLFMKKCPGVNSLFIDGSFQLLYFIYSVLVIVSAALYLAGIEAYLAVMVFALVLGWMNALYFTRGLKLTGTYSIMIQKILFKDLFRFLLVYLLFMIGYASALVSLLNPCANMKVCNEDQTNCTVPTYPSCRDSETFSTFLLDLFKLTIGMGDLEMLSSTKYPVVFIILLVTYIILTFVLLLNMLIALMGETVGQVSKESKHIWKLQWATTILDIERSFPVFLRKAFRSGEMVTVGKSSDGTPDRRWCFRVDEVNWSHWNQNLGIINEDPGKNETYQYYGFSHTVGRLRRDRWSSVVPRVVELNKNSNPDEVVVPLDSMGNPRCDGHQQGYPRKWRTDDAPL
T3 sequence (O75762 whole entry): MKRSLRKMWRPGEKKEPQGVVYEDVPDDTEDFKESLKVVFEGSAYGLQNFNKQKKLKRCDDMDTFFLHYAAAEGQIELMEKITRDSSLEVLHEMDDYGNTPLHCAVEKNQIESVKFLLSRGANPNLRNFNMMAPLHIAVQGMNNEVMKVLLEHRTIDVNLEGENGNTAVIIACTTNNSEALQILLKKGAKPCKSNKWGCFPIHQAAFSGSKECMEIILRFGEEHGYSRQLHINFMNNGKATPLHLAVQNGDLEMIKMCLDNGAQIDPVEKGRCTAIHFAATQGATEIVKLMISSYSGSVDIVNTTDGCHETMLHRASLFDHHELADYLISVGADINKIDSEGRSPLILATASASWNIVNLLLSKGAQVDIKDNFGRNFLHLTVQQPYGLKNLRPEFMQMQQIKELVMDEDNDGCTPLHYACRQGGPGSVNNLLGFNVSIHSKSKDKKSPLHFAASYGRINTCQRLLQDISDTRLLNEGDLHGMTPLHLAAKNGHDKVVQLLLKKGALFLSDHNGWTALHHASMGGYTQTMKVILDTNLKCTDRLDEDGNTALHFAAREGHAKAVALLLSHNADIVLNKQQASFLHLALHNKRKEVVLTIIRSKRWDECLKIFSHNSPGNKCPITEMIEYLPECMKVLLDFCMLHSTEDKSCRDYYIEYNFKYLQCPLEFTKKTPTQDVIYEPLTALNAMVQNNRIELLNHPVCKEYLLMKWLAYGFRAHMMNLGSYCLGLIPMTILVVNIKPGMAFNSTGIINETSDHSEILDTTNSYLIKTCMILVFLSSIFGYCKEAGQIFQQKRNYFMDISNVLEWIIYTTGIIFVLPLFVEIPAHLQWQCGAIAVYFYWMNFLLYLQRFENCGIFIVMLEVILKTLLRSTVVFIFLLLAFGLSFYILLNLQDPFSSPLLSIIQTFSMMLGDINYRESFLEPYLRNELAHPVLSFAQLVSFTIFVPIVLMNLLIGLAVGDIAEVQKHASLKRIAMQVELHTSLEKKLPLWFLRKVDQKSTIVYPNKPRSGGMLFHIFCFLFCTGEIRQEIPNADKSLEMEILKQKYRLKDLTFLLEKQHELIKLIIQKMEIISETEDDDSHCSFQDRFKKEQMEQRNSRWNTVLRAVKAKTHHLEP
Sequence of Transient receptor potential cation channel subfamily M member 8 (Q7Z2W7 whole entry): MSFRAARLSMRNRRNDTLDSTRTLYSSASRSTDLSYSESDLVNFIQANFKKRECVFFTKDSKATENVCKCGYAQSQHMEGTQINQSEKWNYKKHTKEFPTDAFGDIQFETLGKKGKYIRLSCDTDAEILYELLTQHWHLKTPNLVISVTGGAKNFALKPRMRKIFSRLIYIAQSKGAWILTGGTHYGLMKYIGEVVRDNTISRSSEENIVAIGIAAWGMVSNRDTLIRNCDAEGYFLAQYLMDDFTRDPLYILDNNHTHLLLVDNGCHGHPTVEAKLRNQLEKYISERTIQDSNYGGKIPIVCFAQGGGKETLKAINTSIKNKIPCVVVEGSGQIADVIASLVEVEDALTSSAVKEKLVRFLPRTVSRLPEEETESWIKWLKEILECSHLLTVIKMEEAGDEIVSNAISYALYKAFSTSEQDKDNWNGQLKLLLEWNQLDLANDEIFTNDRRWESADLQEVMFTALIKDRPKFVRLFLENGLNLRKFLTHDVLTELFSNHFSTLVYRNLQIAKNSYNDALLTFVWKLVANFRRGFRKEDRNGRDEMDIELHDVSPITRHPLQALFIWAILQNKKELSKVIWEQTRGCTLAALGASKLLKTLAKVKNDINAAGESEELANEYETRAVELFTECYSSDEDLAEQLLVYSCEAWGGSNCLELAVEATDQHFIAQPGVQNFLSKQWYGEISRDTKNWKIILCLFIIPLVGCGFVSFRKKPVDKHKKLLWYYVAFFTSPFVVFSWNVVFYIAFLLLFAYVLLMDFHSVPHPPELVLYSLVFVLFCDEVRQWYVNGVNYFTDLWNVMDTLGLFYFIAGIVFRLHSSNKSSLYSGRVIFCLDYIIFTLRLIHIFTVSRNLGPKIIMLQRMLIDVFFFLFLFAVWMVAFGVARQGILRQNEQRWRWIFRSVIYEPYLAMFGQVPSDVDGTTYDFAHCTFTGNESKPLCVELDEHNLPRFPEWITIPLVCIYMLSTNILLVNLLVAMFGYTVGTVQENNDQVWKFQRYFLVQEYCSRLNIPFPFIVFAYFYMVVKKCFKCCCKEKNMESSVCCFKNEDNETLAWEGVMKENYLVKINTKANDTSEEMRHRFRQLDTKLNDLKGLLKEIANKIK

`O=S(=O)(c1ccc(Cl)cc1Cl)N1CCC(O)(CSc2ccncc2)CC1` yielded an IC50 in data set [1] of 2200 nM.
In the case of `N#Cc1ccc(OCC2(O)CCN(S(=O)(=O)c3ccc(Cl)cc3Cl)CC2)cc1F`, the IC50 in data set [2] turned out to be 12.9 nM.
Consider `N#Cc1ccc(S(=O)(=O)N2CCC(O)(COc3ccc(C#N)c(F)c3)CC2)c(Cl)c1`, for which the IC50 in data set [2] is 49.1 nM.
In the case of `N#Cc1ccc(OCC2(O)CCN(S(=O)(=O)c3ccc(Cl)cc3Cl)CC2)cc1`, the IC50 in data set [3] is 4800 nM; in [5], greater than 3900 nM; in data set [7], greater than 12500 nM; in data set [9], 1150 nM; in [2] it was 49.7 nM. The EC50 in data set [4] was greater than 20000 nM; in data set [6] it was greater than 12500 nM; in [8], greater than 1000 nM; in data set [10], greater than 1000 nM.
Take `N#Cc1ccc(S(=O)(=O)N2CCC(O)(COc3ccc(C#N)c(F)c3)CC2)c(C#N)c1`: the IC50 in data set [2] was found to be 50.5 nM.
Regarding `N#Cc1ccc(OCC2(O)CN(S(=O)(=O)c3ccc(Cl)cc3C#N)C2)cc1F`, in data set [2], the IC50 was 3.4 nM.
Still for that read-out and setting: the value for `N#Cc1ccc(OCC2(O)CN(S(=O)(=O)c3ccc(Cl)cc3C#N)C2)cc1Cl` was 3.6 nM.
On to `N#Cc1ccc(OCC2(O)CN(S(=O)(=O)c3ccc(Cl)cc3Cl)C2)cc1F`, for which the bioavailability in data set [11] worked out at 73%. Moreover, the Tmax in data set [12] is 0.75 h. For the same compound, in the data set with Rattus norvegicus [13], the fCmax is 16 nM. In [14], the Vd turned out to be 4.3 L/kg. Moreover, the CL free in the data set with Rattus norvegicus [15] was 756 mL/min/kg. Further, the clearance in data set [16] came to 23.5 mL/min/kg. In [17], this compound showed a half-life of 2.2 h. Moreover, the IC50 was 9670 nM in data set [18]; 9580 nM in data set [3]; greater than 16000 nM in [5]; greater than 12500 nM in data set [7]; 34.1 nM in [9]; 3.8 nM in data set [2]. The compound further came in with a log distribution coefficient (logD) in data set [19] of 3.2. Further, the inhibition at 3 µM at CYP2D6, against CYP3A4, against CYP2C9 and at CYP1A2 was less than 20% in each case. Also, the microsomal CLint in data set [20] is 87 µL/min/mg; in [21], less than 8.1 µL/min/mg. For the same compound, the EC50 was greater than 20000 nM in data set [4], greater than 12500 nM in [6], greater than 1000 nM in data set [8] and greater than 1000 nM in data set [10].
`N#Cc1ccc(S(=O)(=O)N2CC(O)(COc3ccc(C#N)c(Cl)c3)C2)c(Cl)c1`: in data set [2], the IC50 turned out to be 4 nM.

As usually defined, the IC50 is the point on the concentration scale where inhibition reaches its midpoint. The EC50 is the concentration needed to bring the measured effect to its halfway point. The term bioavailability denotes the share of a dose that reaches the circulation, judged against a reference dose that is usually intravenous. A high value points to much systemic uptake. As a reminder, the Tmax is the time at which the peak concentration occurs. Broadly, the clearance is a measure of how efficiently the substance is removed, as volume per time. High values mean a high capacity for elimination, low ones a low capacity for elimination. The term half-life denotes the time in which the quantity being followed falls by half. Lower therefore signals rapid decline. As a reminder, the logD is the decadic logarithm of the distribution of all forms, ionised or not, between an organic phase and buffer at a given pH. Read a low logD as lower lipophilicity. As a reminder, the inhibition is the percentage by which the read-out fell short of the control. A higher inhibition goes with a strong effect.
